The text below walks through data of patent US20190183812A1, “Compounds For The Treatment Of Neuromuscular Disorders” (NMD PHARMA A/S, priority 2017, published 2019).

One assay concerns the target T1, human CIC-1 channels (Homo sapiens, UniProt P35523).
T1 construct: host or cells: CHO (Chinese hamster ovary) cells
Description: Automated patch-clamp on human CIC-1 expressed in CHO cells. The assay is classed as cell-based. As to conditions: compound added to the intracellular solution vs vehicle control patches; positive shift reflects CIC-1 inhibition. The protocol:
The investigatory goal of these experiments was to evaluate how compounds affect the open probability and current amplitude of human CIC-1 channels expressed in CHO cells. Experiments were performed using an automated patch clamp system that allowed high throughput testing of whole cell patches together with both intracellular and extracellular addition of compound.
Automated whole cell patch clamp experiments were performed with the Qpatch 16 system (Sophion Bioscience, Ballerup, Denmark) at room temperature. Data acquisition and analysis were performed in the Qassay software (ver. 5.6, Odense).
To evoke CIC-1 currents in whole cell patches, the membrane potential was initially stepped from a holding potential of −30 mV to +60 mV for 100 ms and then to various test voltages (sweeps) ranging from +120 mV to −140 mV in steps of 20 mV for 300 ms. To obtain tail currents, the membrane potential was stepped to −100 mV after each test voltage for 300 ms and then relaxed to −30 mV for 2 sec between sweeps (FIG. 3). I/V relationships for whole cell instant and steady state current amplitudes were obtained by plotting average current densities at the beginning and at the end of the 300 ms step against the membrane potential (FIG. 4).
In order to determine the relative overall open probability (P0), the instantaneous tail currents were normalized to the maximal tail current obtained following the most positive voltage step and plotted against the test voltage. Plots of normalized tail currents from each whole cell patch were then fitted to a Boltzmann function allowing determination of half activation voltages (V1/2, FIG. 5).
For automated patch clamp experiments extracellular solutions contained: 2 mM CaCl2, 1 mM MgCl2, 10 mM HEPES, 4 mM KCl, 145 mM NaCl, 10 mM Glucose, pH adjusted to 7.4 with NaOH (2 M). Osmolality adjusted to ˜320 using sucrose.
Intracellular solutions contained: 80 mM CsF, 60 mM CsCl, 5/1 mM KOH/EGTA, 10 mM HEPES, 10 mM NaCl, pH adjusted to 7.2 with NaOH (2 M). Osmolality adjusted to ˜320 mOsm using sucrose.
Cells used in patch clamp experiments were Chinese hamster ovary cells (CHO) constitutively expressing human CIC-1 channels. The amino acid sequence encoded by the cDNA used to create this cell line was identical to the translated sequence for GenBank accession number NM_000083.2. Cells were produced by Charles River (Catalogue CT6175, Cleveland Ohio, USA) in a cryopreserved format. Experiments were performed on the cells directly after thawing (3×10^6 cells used in each experiment).
To evaluate the compound effect on CIC-1, when applied directly to the intracellular side of the cell membrane, the half activation voltage, V1/2, was determined from whole cell patches with compound added to the intracellular solution and then compared to V1/2 determined from control cell patches with only vehicle added to the intracellular solution. Additionally, the effect of extracellular added compound was evaluated by determine V1/2 and steady state current amplitudes before and after exchanging the extracellular solution to contain compound.
The difference in half activation voltage of CIC-1 channels, […]V1/2, was determined as the difference between the cell patches treated intracellularly with compound and control cells patches and is reported in Table 4 below. A positive shift in […]V1/2 is reflecting CIC-1 channel inhibition by the tested compound. P-values of <0.05 is considered significant.
For orientation: The patch-clamp technique gives a direct electrical read-out from membranes.

The subject of a further assay is Lewis rats. Briefly: In situ muscle contractile characteristics: isometric hindlimb force under cisatracurium infusion. Format: in vivo, rat. As to conditions: 21.5 mg/kg i.v.; 12 Hz; 3 experiments. The protocol:
Isometric hindlimb force was measured in 12-week old female Lewis rats in the presence and absence of compound.
Rats were placed under anesthesia with isoflurane (2-4%), intubated and subsequently connected to a micro ventilator (Microvent 1, Hallowell EMC, US). Two stimulation electrodes were inserted through the skin to stimulate the sciatic nerve. A small incision was made proximal to the ankle, to expose the Achilles tendon, which was tied by cotton string, and connected to a force transducer (Fort250, World Precision Instruments) with adjustable position (Vernier control). The Achilles tendon was then cut distal to the attached cotton string. […]
Muscle contractile properties were assessed by applying an electrical current (under supramaximal voltage conditions) to the nerve and recording the force generated by the muscle. The muscle was stretched until maximal force was obtained, when assessed by 2 Hz stimulation. Isometric force was measured every 30 seconds at 12 Hz (Twitch), 10 pulses, and at every 5 minutes at 80 Hz (Tetanic) for 1 second (80 pulses). […] The effect of test article was assessed on its ability to increase force generated from the stimulation pattern applied. The effect was assessed in the ability to increase force per se (tetanic, 80 Hz, stimulation), and the ratio between individual twitch peaks (12 Hz stimulation). […]

The subject of assay [1] is isolated rat soleus muscles. Description: Recovery of nerve-stimulated force in isolated rat soleus muscles exposed to sub-maximal tubocurarine. As to conditions: Rattus norvegicus, 40 min; read-out: 50 μM % change after addition. As for the experimental part: Experiments were performed using rat soleus muscles from either young (4-wk-old) or adult Wistar rats (12-14-week-old). Animal handling, killing and isolation of muscle is described elsewhere All experiments were performed using normal Krebs-Ringer bicarbonate solution (NKR). In solutions with elevated Mg^2+, MgCl2 was added to NKR-solution causing minor increases in osmolarity and ionic strength. In solutions with elevated K^+, 4 mM NaCl was replaced by 4 mM KCl in the NKR.
In all contraction experiments, isometric force production was determined and force produced during contractions was quantified by measuring the integral of the force response (AUC). Stimulation and force recordings have been described elsewhere. […] In these latter experiments, extracellular recordings of action potentials (M-waves) could be measured without temporal overlap with stimulation artefacts.
The aim was to find compounds that by inhibition of CIC-1 channels can recover nerve-stimulated force under conditions of fatigue including conditions where fatigue is caused by compromised neuromuscular transmission. Neuromuscular transmission dysfunction can develop because of both pre- and/or post-synaptic complications in connection with a disorder or as part of neuromuscular blockade during/after surgery. In the initial series of drug testing, experiments were performed with isolated muscles in the presence of sub-maximal ACh receptor antagonist tubocurarine. Since the inclusion of tubocurarine caused a partial loss of neuromuscular transmission this experiment mimics the conditions in myasthenia gravis and neuromuscular blockade. To mimic conditions with pre-synaptic complication (Lambert Eaton syndrome, motor neuron disorder, polyneuropathy) the intact nerve-muscle preparations were incubated at elevated extracellular Mg^2+, which is known to suppress release of ACh from nerve terminals of motor neurons.
To identify CIC-1 inhibitors that could be used for treatment of neuromuscular disorders we repeated the experiment shown in FIG. 2A but instead of adding 9-AC we added the compounds of interest in different concentrations within the range from 10 to 500 μM. […] For comparison with the muscle only exposed to tubocurarine (grey trace), the two traces have been overlaid. […] For comparison, muscles only exposed to tubocurarine have been included. The dotted line indicates the recovery of force with C8 when compared to the force production before its addition. This value was used in Table 1 for evaluation of the efficacy of the different compounds in recovering force.

The target in the next assay is T2, CIC-1 ion channels (Rattus norvegicus, UniProt P35524).
T2 construct: from tissue; host or cells: soleus muscle of adult (12-14 week old) Wistar rats
T2 sequence (P35524 1-994): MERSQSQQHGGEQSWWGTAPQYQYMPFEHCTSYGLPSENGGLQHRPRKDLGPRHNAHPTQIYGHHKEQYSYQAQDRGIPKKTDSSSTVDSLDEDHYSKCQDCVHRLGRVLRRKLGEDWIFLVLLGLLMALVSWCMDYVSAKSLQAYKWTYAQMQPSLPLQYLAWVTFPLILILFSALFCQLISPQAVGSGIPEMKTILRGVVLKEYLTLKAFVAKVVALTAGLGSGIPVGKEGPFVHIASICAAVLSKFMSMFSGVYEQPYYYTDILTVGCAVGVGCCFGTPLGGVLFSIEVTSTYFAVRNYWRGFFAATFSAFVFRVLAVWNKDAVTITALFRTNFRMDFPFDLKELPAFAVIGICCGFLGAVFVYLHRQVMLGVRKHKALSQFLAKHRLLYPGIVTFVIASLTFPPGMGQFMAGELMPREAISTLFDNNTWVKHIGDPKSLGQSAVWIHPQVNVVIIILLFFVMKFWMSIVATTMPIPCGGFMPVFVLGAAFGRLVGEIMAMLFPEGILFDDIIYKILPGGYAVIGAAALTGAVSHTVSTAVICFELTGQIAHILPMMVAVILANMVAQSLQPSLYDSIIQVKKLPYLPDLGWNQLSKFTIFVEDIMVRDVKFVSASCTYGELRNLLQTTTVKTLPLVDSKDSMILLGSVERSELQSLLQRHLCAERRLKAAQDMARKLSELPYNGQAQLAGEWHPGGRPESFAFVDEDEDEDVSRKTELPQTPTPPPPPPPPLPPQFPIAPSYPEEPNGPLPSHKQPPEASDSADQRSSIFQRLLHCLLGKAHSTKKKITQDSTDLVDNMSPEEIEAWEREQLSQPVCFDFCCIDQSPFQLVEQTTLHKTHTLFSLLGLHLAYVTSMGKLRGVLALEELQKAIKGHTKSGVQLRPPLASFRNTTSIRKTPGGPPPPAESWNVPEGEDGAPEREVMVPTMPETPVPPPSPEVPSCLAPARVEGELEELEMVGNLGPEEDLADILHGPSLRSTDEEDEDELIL
Description: Resting membrane conductance (Gm), three-electrode technique, rat muscle: Kd for CIC-1 inhibition. The assay is classed as cell-based. As to conditions: concentration that reduced Gm by 50%.

Each structure is given as a SMILES string.

Usually Kd stands for a measure of binding affinity in units of concentration.

T1 sequence (P35523 whole entry): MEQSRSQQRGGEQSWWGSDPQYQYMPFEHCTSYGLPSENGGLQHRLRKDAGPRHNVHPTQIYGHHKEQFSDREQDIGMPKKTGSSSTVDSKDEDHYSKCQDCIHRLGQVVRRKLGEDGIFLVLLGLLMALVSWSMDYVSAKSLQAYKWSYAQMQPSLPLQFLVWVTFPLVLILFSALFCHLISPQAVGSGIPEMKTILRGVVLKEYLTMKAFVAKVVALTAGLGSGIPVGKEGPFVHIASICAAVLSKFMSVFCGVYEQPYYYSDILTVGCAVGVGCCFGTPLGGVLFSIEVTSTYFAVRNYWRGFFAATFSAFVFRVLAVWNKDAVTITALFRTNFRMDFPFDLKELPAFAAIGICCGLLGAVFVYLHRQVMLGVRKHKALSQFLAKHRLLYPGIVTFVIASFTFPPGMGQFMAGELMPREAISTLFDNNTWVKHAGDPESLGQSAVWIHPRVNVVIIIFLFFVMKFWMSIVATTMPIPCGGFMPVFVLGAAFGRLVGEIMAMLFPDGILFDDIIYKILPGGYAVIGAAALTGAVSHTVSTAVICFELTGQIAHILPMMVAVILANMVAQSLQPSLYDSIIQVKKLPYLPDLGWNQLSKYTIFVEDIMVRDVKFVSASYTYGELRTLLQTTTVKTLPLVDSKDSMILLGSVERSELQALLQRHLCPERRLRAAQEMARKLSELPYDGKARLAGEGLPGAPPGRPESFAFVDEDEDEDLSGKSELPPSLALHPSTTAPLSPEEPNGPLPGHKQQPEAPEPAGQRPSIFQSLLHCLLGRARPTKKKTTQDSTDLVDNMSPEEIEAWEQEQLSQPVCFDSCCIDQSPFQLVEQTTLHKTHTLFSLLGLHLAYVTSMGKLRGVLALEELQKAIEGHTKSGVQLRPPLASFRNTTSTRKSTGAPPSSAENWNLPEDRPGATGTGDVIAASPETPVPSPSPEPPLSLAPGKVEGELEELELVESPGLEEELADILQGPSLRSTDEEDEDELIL

For the compound `C[C@H](Oc1ccc(Br)cc1C1CC1)C(=O)O` [Compound A-2, (2S)-2-(4-bromo-2-cyclopropylphenoxy)propanoic acid], the ΔV½ on human CIC-1 channels came to 9.2 mV. Further, in the assay with Lewis rats, the “change in twitch peaks” value was “no significant change”.

`CC(C)[C@H](Oc1ccc(Br)cc1)C(=O)O` [Compound C22, (2S)-2-(4-bromophenoxy)-3methylbutanoic acid]: the activation at 50 µM in assay [1] amounted to 16%. This compound displayed a Kd on CIC-1 ion channels of 4.1 µM.
